Data as given in BindingDB's records for doi:10.1021/jm000181f (Deakin University, 2001).
pKd: −log10 of the molar value.

Assays:
[1] = Dissociation constant of [3H]-DPCPX binding to adenosine A1 receptor(AR) at 0.05 nM
[2] = Dissociation constant of [3H]DPCPX binding to adenosine A1 receptor(AR) at 0.1 nM
[3] = Dissociation constant of [3H]DPCPX binding to adenosine A1 receptor (AR) at 200 nM
[4] = Dissociation constant of [3H]DPCPX binding to adenosine A1 receptor (AR) at 0.05 nM
[5] = Dissociation constant of [3H]DPCPX binding to adenosine A1 receptor (AR) at 100 nM
[6] = Dissociation constant of [3H]-DPCPX binding to adenosine A1 receptor (AR) at 0.1 nM
[7] = Dissociation constant of [3H]DPCPX binding to adenosine A1 receptor (AR) at 5 nM

Q: With `CCCn1c(=O)c2[nH]c(C3CCCC3)nc2n(CCCNC(=O)c2ccc(S(=O)(=O)F)cc2)c1=O` [4-[3-(8-Cyclopentyl-2,6-dioxo-1-propyl-1,2,6,7-tetrahydro-purin-3-yl)-propylcarbamoyl]-benzenesulfonyl fluoride] as the molecule, how does the pKd [1] read?
A: 9.59

Q: And the pKd [2]?
A: 9.62

Q: With `CCCn1c(=O)c2[nH]c(C3CCCCC3)nc2n(Cc2ccc(S(=O)(=O)F)cc2)c1=O` [4-(8-Cyclohexyl-2,6-dioxo-1-propyl-1,2,6,7-tetrahydro-purin-3-ylmethyl)-benzenesulfonyl fluoride] as the molecule, how does the pKd [3] read?
A: 9.49

Q: With `CCCn1c(=O)c2[nH]c(C3CCCCC3)nc2n(CCCNC(=O)c2ccc(S(=O)(=O)F)cc2)c1=O` [4-[3-(8-Cyclohexyl-2,6-dioxo-1-propyl-1,2,6,7-tetrahydro-purin-3-yl)-propylcarbamoyl]-benzenesulfonyl fluoride] as the molecule, how does the pKd [4] read?
A: 9.55

Q: What about the pKd [5] of the same molecule?
A: 9.47

Q: What about the pKd [6] of the same molecule?
A: 9.57

Q: And the pKd [7]?
A: 9.43

Q: With `CCCn1c(=O)c2[nH]c(C3CCCCC3)nc2n(CCCCCc2ccc(S(=O)(=O)F)cc2)c1=O` [4-[5-(8-Cyclohexyl-2,6-dioxo-1-propyl-1,2,6,7-tetrahydro-purin-3-yl)-pentyl]-benzenesulfonyl fluoride] as the molecule, how does the pKd [3] read?
A: 9.09

Q: With `CCCn1c(=O)c2[nH]c(C3CCCCC3)nc2n(CCCc2ccc(S(=O)(=O)F)cc2)c1=O` [4-[3-(8-Cyclohexyl-2,6-dioxo-1-propyl-1,2,6,7-tetrahydro-purin-3-yl)-propyl]-benzenesulfonyl fluoride] as the molecule, how does the pKd [3] read?
A: 9.43
